Active and inactive are the calls of the source.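 Rule for the calls: active = compounds whose fitted half-maximal concentration in the cell-protection dose series is at or below a set limit; inactive = the rest.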
system: H9c2 cardiomyocytes, 2-deoxyglucose stress, ATP luminescence, 2 h; test: protection of cardiomyocytes from 2-deoxyglucose injury, dose response, cell-based, 2-deoxyglucose stress, uHTS hits (AID 588780)

Compound	IC50
CCn1c(SCC(=O)Nc2ccccc2N2CCCCC2)nc2c1c(=O)n(C)c(=O)n2C	12.6 µM
O=c1[nH]c2c(c3c1CCCC3)CCCC2	> 79 µM (inactive)
CC(=O)c1ccccc1OCC(O)CN1CCN(CCN2C(=O)c3cccc4cccc(c34)C2=O)CC1 (stereo not drawn)	> 79 µM (inactive)
CCOC(=O)COc1cc(OCC(=O)OCC)c2c3c(c(=O)oc2c1)CCCC3	16.4 µM
Cn1c(=O)c2c(nc(Br)n2Cc2ccc3ccccc3c2)n(C)c1=O	> 79 µM (inactive)
CCCCn1nc(C(=O)Oc2ccc3c(C)cc(=O)oc3c2)c2ccccc2c1=O	> 79 µM (inactive)
O=C(CCc1nc2ccccc2c(=O)[nH]1)Nc1nc(-c2cccs2)cs1	> 79 µM (inactive)
Cc1ccc(-c2nn3c(C)nnc3c3ccccc23)cc1S(=O)(=O)NC(C)c1ccccc1 (stereo not drawn)	> 79 µM (inactive)
Cc1ccc2nc(-c3ccccc3)cc(C(=O)NNC(=O)c3csc(N4CCOCC4)n3)c2c1	> 79 µM (inactive)
O=C(N/N=C/c1ccc2c(c1)OCO2)c1ccc(NC(=O)c2ccccc2Cl)cc1	16.2 µM
COc1cccc(-c2cnc3c(NC=O)cc(-c4cccc(NC(C)=O)c4)cn23)c1	> 79 µM (inactive)
O=C(COC(=O)Cc1n[nH]c(=O)c2ccccc12)Nc1ccc(Cl)cn1	> 79 µM (inactive)
COc1ccc(-c2csc(NC(=O)CCn3cnc4ccccc4c3=O)n2)cc1OC	> 79 µM (inactive)
COc1ccccc1NC(=O)COc1cccc2c1CCNC2=O	> 79 µM (inactive)
O=C(COc1cccc2c1CCNC2=O)NC1CCCCC1	> 79 µM (inactive)
COc1cccc(OC)c1C(=O)Nc1cc(C)nn1-c1nc2ccccc2[nH]1	> 79 µM (inactive)
CC12CCC3C(CCC4CC(O)CCC43C)C1CC(O)C2 (stereo not drawn)	> 79 µM (inactive)
CC1CN(c2nn3c(=O)c4ccccc4nc3c3ccccc23)CC(C)O1 (stereo not drawn)	> 79 µM (inactive)
C[C@@H]1CN([C@H](C)CO)S(=O)(=O)c2ccc(C#Cc3ccccc3F)cc2O[C@H]1CN(C)C(=O)c1ccc2c(c1)OCO2	> 79 µM (inactive)
O=C1NC(=O)c2c(Br)c(Br)c(Br)c(Br)c21	> 79 µM (inactive)
COc1cc2nc(Nc3ccc(F)cc3)nc(N)c2cc1OC	42.9 µM (inactive)
CSc1nnc(NC(=O)c2cc3ccccc3oc2=O)s1	> 79 µM (inactive)
O=C(N/N=C/c1ccccn1)c1[nH]c2ccc([N+](=O)[O-])cc2c1-c1ccccc1	13.2 µM

Compound	IC50
C[C@H](CO)N1C[C@H](C)[C@@H](CN(C)S(=O)(=O)c2ccccc2)Oc2ccc(NC(=O)Nc3ccccc3)cc2C1=O	24.2 µM
O=C(CNC(=O)c1[nH]cnc1C(=O)NC(c1ccccc1)c1ccccc1)OCc1ccccc1	13.1 µM
CC(OC(=O)Cc1n[nH]c(=O)c2ccccc12)C(=O)Nc1ccc(F)cc1Cl (stereo not drawn)	> 79 µM (inactive)
CC1Nc2ncnc(N3CCN(c4ccccc4)CC3)c2N(Cc2ccc(Cl)cc2)C1=O (stereo not drawn)	12.7 µM
Cc1c(Cl)cccc1NC(=O)CNC(=O)Cc1n[nH]c(=O)c2ccccc12	> 79 µM (inactive)
CCN(CC)CCNC(=O)CCc1n[nH]c(=O)c2ccccc12	> 79 µM (inactive)
O=C(COC(=O)Cc1n[nH]c(=O)c2ccccc12)Nc1c(Br)cc([N+](=O)[O-])cc1Br	> 79 µM (inactive)
COc1cc2c(cc1OC)CN(CC(=O)Nc1ccccc1C#N)CC2	44.1 µM (inactive)
COc1ccc(CCn2c(Br)nc3c2c(=O)[nH]c(=O)n3C)cc1	> 79 µM (inactive)
CCN(CC(=O)Nc1c(F)cccc1F)C(=O)Cn1[nH]c(=O)c2ccccc2c1=O	> 79 µM (inactive)
COc1cccc(OC)c1C(=O)Nc1ccc(Br)c(C(=O)c2ccccc2)c1	10.7 µM
COc1cccc(-c2cnc3c(NC(C)=O)cc(-c4cccc(NS(C)(=O)=O)c4)cn23)c1	> 79 µM (inactive)
O=C(Nc1nc2ccccc2n1Cc1ccccc1)c1ccco1	14.7 µM
COc1cc(-c2cc3nc(NCCc4ccc(S(N)(=O)=O)cc4)ccn3n2)cc(OC)c1OC	15.8 µM
Cc1ccc(OCCOC(=O)CCc2nc3ccccc3c(=O)[nH]2)cc1	> 79 µM (inactive)
COc1cc2oc3cc(C#Cc4ccc(N)cc4)ccc3c(=O)c2cc1OC	> 79 µM (inactive)
COc1ccc(C(=O)Nc2nc(-c3ccccn3)cs2)cc1S(=O)(=O)N1CCOCC1	16.1 µM
CCOc1ccccc1N1CC(O)=C(c2nc3ccccc3s2)C1=N	> 79 µM (inactive)
Nc1ccc2nc(-c3cccs3)[nH]c2c1	> 79 µM (inactive)
COC(=O)c1[nH]c2cc(OC)c(OC)cc2c1/C=N/Nc1ccccc1	> 79 µM (inactive)
CCN(CC(=O)Nc1cc(Cl)ccc1C)C(=O)CCc1nc2ccccc2c(=O)[nH]1	> 79 µM (inactive)
COc1ccc(N(CC(=O)Nc2ccc3c(c2)OCO3)S(=O)(=O)c2ccccc2)c(OC)c1	15.4 µM
CC(C)c1cc(N2CCN(C(=O)c3ccco3)CC2)n2c(nc3ccccc32)c1C#N	28.5 µM

Compound	IC50
CCOc1ccc2nc(NC(=O)CN3CCC(n4nnc5cc(F)ccc54)CC3)sc2c1	> 79 µM (inactive)
COc1ccc(-c2ccc3[nH]c4c(c3c2)CCN2C[C@H]3[C@H](C)ON(C)[C@H]3C[C@@H]42)cc1	46.8 µM (inactive)
O=C(NCCc1c[nH]c2ccccc12)C(=O)NCC(c1ccco1)N1CCN(c2ccccc2F)CC1 (stereo not drawn)	> 79 µM (inactive)
Cc1cc(C)c(S(=O)(=O)N2CCN(C(=O)c3cc(=O)[nH]c4ccccc34)CC2)c(C)c1	19.3 µM
O=C(CN1C(=O)CCC1=O)Nc1nc(-c2ccccn2)cs1	43.2 µM (inactive)
c1ccc(-c2cc(-c3nnc4sc(-c5ccccn5)nn34)[nH]n2)cc1	> 79 µM (inactive)
CCCN1C(=O)/C(=C/c2nc3ccccc3c(=O)[nH]2)c2ccccc21	11.2 µM
CCCN1C(=O)c2cc(C(=O)Nc3cccc(C(C)=O)c3)ccc2C1Nc1cccc(C(C)=O)c1 (stereo not drawn)	11.4 µM
CC(=O)Nc1ccc(-c2csc(NC(=O)Nc3ccccc3)n2)cc1	36.3 µM (inactive)
CCOCCn1ccc2c(OCC(=O)Nc3cc(OC)ccc3OC)cccc2c1=O	> 79 µM (inactive)
COc1cccc(C(=O)Nc2c(C(N)=O)oc3ccccc23)c1	> 79 µM (inactive)
COc1cccc(-c2nnc(NC(=O)c3ccc(S(=O)(=O)N(CC(C)C)CC(C)C)cc3)o2)c1	> 79 µM (inactive)
COc1ccc(CN(C)C(=O)C(Cc2ccccc2)NC(=O)c2ccccc2)cc1F (stereo not drawn)	7.05 µM
Cc1cccc(C)c1OCCn1nc(C(=O)O)c2ccccc2c1=O	10.8 µM
COc1cccc(-c2nn(-c3ccccc3)cc2C(=O)Nc2nccs2)c1	> 79 µM (inactive)
Cc1ccc(C(=O)CSc2nc3ccccc3c(=O)[nH]2)cc1	> 79 µM (inactive)
Cc1sc2nc(SCC(=O)NCc3ccco3)[nH]c(=O)c2c1C	> 79 µM (inactive)
O=C(Nc1cccc(-c2nc3cccnc3s2)c1)c1ccco1	> 79 µM (inactive)
Cn1c(=O)c2[nH]c(NN=Cc3cccc(Br)c3)nc2n(C)c1=O	> 79 µM (inactive)
COc1ccc(Br)cc1C(=O)Nc1cccc(NC(=O)c2ccco2)c1	> 79 µM (inactive)
COc1ccc(/C=C/C(=O)c2ccccc2O)cc1CN1CCOCC1	36.7 µM (inactive)
COc1ccc(OC)c(C2CC(=O)c3c([nH]c(C(=O)OCC4CCCO4)c3C)C2)c1 (stereo not drawn)	> 79 µM (inactive)

Reference: PubChem BioAssay AID588780 (Sanford-Burnham Center for Chemical Genomics, 2011)
